Laboratory results published in the supplement of paper PMC10307832.

Columns and labels:
Assay in all cases: relative viability (nuclei count vs DMSO), 5 days (fraction); higher = more cells survive
Alisertib + Luminespib = compound: COc1cc(Nc2ncc3c(n2)-c2ccc(Cl)cc2C(c2c(F)cccc2OC)=NC3)ccc1C(=O)O [Alisertib] + CCNC(=O)c1noc(-c2cc(C(C)C)c(O)cc2O)c1-c1ccc(CN2CCOCC2)cc1 [Luminespib] (partner 0.01 µM)
Summary of the method: (§1)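 After 5 days of treatment, lung cancer cells in 1536-well plates were fixed and stained in a single step (final 0.05% Triton X-100, 1% formaldehyde, 1 ug/ml Hoechst) and their nuclei counted on 4× images. Treatment had been applied by pin tool the day after seeding as one drug alone or as a fixed anchor-drug dose with five library-drug doses (not always all listed) in √10 steps. Relative viability is the nuclei count of treated wells divided by that of vehicle wells, and values are medians of duplicate plates.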

Alisertib + OSI-027 = compound: COc1cc(Nc2ncc3c(n2)-c2ccc(Cl)cc2C(c2c(F)cccc2OC)=NC3)ccc1C(=O)O [Alisertib] + COc1cccc2cc(-c3nc([C@H]4CC[C@H](C(=O)O)CC4)n4ncnc(N)c34)[nH]c12 [OSI-027] (partner 0.5 µM)
Summary of the method: as §1

Alisertib + Lapatinib = compound: COc1cc(Nc2ncc3c(n2)-c2ccc(Cl)cc2C(c2c(F)cccc2OC)=NC3)ccc1C(=O)O [Alisertib] + CS(=O)(=O)CCNCc1ccc(-c2ccc3ncnc(Nc4ccc(OCc5cccc(F)c5)c(Cl)c4)c3c2)o1 [Lapatinib] (partner 2 µM)
Summary of the method: as §1

Alisertib + Linsitinib = compound: COc1cc(Nc2ncc3c(n2)-c2ccc(Cl)cc2C(c2c(F)cccc2OC)=NC3)ccc1C(=O)O [Alisertib] + C[C@]1(O)C[C@@H](c2nc(-c3ccc4ccc(-c5ccccc5)nc4c3)c3c(N)nccn32)C1 [Linsitinib] (partner 1 µM)
Summary of the method: as §1

Cell Line | relative viability (Alisertib + Luminespib; first compound 0.005 µM) | relative viability (Alisertib + Luminespib; first compound 0.01581 µM) | relative viability (Alisertib + Luminespib; first compound 0.05 µM) | relative viability (Alisertib + Luminespib; first compound 0.1581 µM) | relative viability (Alisertib + Luminespib; first compound 0.5 µM) | relative viability (Alisertib + OSI-027; first compound 0.005 µM) | relative viability (Alisertib + OSI-027; first compound 0.01581 µM) | relative viability (Alisertib + OSI-027; first compound 0.05 µM) | relative viability (Alisertib + OSI-027; first compound 0.1581 µM) | relative viability (Alisertib + OSI-027; first compound 0.5 µM) | relative viability (Alisertib + Lapatinib; first compound 0.005 µM) | relative viability (Alisertib + Lapatinib; first compound 0.01581 µM) | relative viability (Alisertib + Lapatinib; first compound 0.05 µM) | relative viability (Alisertib + Lapatinib; first compound 0.1581 µM) | relative viability (Alisertib + Lapatinib; first compound 0.5 µM) | relative viability (Alisertib + Linsitinib; first compound 0.005 µM) | relative viability (Alisertib + Linsitinib; first compound 0.01581 µM) | relative viability (Alisertib + Linsitinib; first compound 0.05 µM) | relative viability (Alisertib + Linsitinib; first compound 0.1581 µM) | relative viability (Alisertib + Linsitinib; first compound 0.5 µM)
H3255 | 0.753 | 0.841 | 0.522 | 0.259 | 0.212 | 0.589 | 0.575 | 0.444 | 0.269 | 0.271 | 0.277 | 0.256 | 0.269 | 0.169 | 0.176 | 0.898 | 0.832 | 0.418 | 0.192 | 0.164
EPLC-272H | 0.275 | 0.166 | 0.122 | 0.112 | 0.134 | 0.275 | 0.282 | 0.256 | 0.131 | 0.124 | 0.756 | 0.612 | 0.846 | 0.152 | 0.112 | 0.998 | 0.865 | 0.921 | 0.3 | 0.131
RERF-LC-KJ | 1.24 | 0.81 | 0.342 | 0.248 | 0.312 | 0.539 | 0.468 | 0.354 | 0.181 | 0.191 | 0.844 | 0.713 | 0.673 | 0.318 | 0.201 | 0.92 | 0.789 | 0.581 | 0.207 | 0.227
NCI-H1793 | 0.171 | 0.147 | 0.156 | 0.127 | 0.136 | 0.257 | 0.149 | 0.213 | 0.193 | 0.149 | 0.887 | 0.376 | 0.41 | 0.22 | 0.27 | 0.811 | 0.923 | 0.373 | 0.276 | 0.197
EKVX | 0.711 | 0.74 | 0.356 | 0.168 | 0.169 | 0.654 | 0.631 | 0.251 | 0.158 | 0.136 | 0.211 | 0.238 | 0.16 | 0.126 | 0.111 | 0.942 | 0.831 | 0.344 | 0.211 | 0.183
ChaGo-K-1 | 0.565 | 0.451 | 0.258 | 0.169 | 0.217 | 0.423 | 0.537 | 0.349 | 0.138 | 0.15 |  |  |  |  |  |  |  |  |  | 
NCI-H23 | 0.219 | 0.236 | 0.204 | 0.224 | 0.214 | 0.518 | 0.377 | 0.287 | 0.17 | 0.144 | 1.01 | 0.427 | 0.27 | 0.176 | 0.171 | 0.621 | 0.545 | 0.228 | 0.191 | 0.155
EMC-BAC-2 | 1.09 | 0.967 | 0.395 | 0.292 | 0.23 | 0.334 | 0.29 | 0.231 | 0.217 | 0.178 | 0.764 | 0.813 | 0.671 | 0.267 | 0.236 | 0.752 | 0.595 | 0.298 | 0.279 | 0.202
LOU-NH91 | 0.334 | 0.311 | 0.297 | 0.293 | 0.291 | 0.682 | 0.719 | 0.674 | 0.389 | 0.324 | 0.773 | 0.784 | 0.731 | 0.484 | 0.361 | 0.977 | 0.941 | 0.818 | 0.491 | 0.403
LU99A | 0.245 | 0.3 | 0.219 | 0.201 | 0.177 | 0.301 | 0.324 | 0.259 | 0.204 | 0.164 | 0.855 | 0.852 | 0.651 | 0.214 | 0.186 | 0.532 | 0.511 | 0.193 | 0.177 | 0.168
NCI-H1395 | 0.78 | 0.561 | 0.566 | 0.342 | 0.343 | 0.521 | 0.605 | 0.527 | 0.415 | 0.356 | 0.865 | 0.843 | 0.795 | 0.596 | 0.391 | 1.18 | 1.02 | 0.716 | 0.509 | 0.488
NCI-H460 | 0.0403 | 0.0274 | 0.0247 | 0.0194 | 0.0287 | 0.618 | 0.578 | 0.218 | 0.0256 | 0.0214 | 0.977 | 0.8 | 0.29 | 0.0226 | 0.0161 | 0.786 | 0.54 | 0.162 | 0.027 | 0.0144
201T | 1.16 | 0.971 | 0.816 | 0.576 | 0.362 | 0.712 | 0.762 | 0.632 | 0.249 | 0.126 | 0.94 | 1.06 | 1.05 | 0.954 | 0.458 | 0.99 | 1.07 | 1 | 0.745 | 0.348
NCI-H1944 | 0.778 | 0.676 | 0.541 | 0.411 | 0.15 | 0.375 | 0.454 | 0.393 | 0.196 | 0.175 | 0.769 | 0.829 | 0.764 | 0.36 | 0.188 | 1.23 | 1.33 | 0.971 | 0.508 | 0.265
NCI-H2405 | 0.735 | 0.619 | 0.745 | 0.356 | 0.285 | 0.63 | 0.666 | 0.592 | 0.321 | 0.231 | 1.03 | 0.873 | 0.932 | 0.295 | 0.272 | 0.922 | 0.814 | 0.818 | 0.384 | 0.266
NCI-H1703 |  |  |  |  |  |  |  |  |  |  | 1.11 | 0.721 | 0.217 | 0.262 | 0.137 | 0.65 | 0.626 | 0.563 | 0.177 | 0.164
NCI-H1755 | 0.463 | 0.409 | 0.255 | 0.189 | 0.199 | 0.638 | 0.645 | 0.541 | 0.341 | 0.27 | 0.946 | 0.945 | 0.833 | 0.299 | 0.316 | 1 | 0.947 | 0.62 | 0.5 | 0.271
